Measured values from patent US20210386367A1, “DEVICES AND SYSTEMS FOR GASTROINTESTINAL MICROBIOME DETECTION AND MANIPULATION” (Progenity, Inc., priority 2018, published 2021).
Converted amounts (≈) assume the structure as drawn. Where two headings read alike, the source gives them in different places.

Experiments:
Assay type in all cases: cell-based
[1] = tested on: Streptococcus spp. clinical isolates; assay: MIC distribution against clinical isolates; details: 54 Streptococcus spp. isolates
Description: (n=19 S. pyogenes, n=20 S. agalactiae and n=20 Viridans group Streptococcus) clinical isolates (μg/mL).
(§1) As used herein, “minimum inhibitory concentration” or “MIC” refers to the lowest concentration of an antimicrobial agent, for example, an antimicrobial agent as described herein, required to inhibit the growth of an organism. […] “MIC90” represents the MIC value at which ≥90% of the strains within a test population are inhibited; the 90th percentile.
(§2) Many susceptibility testing methods are known in the art and can be used as described herein (see, e.g., Jorgensen and Ferraro (2009) Clinical Infectious Diseases 49:1749-1755; and Maurer et al. (2017) Infectious Disease Reports 9:6839; the entire contents of each of the foregoing are incorporated herein by reference). For example, antimicrobial susceptibility can be determined using conventional culture based methods such as the broth or agar dilution test. In these dilution tests, the bacterial isolate of interest is inoculated onto different media that include serial dilutions of an antimicrobial agent, and incubated under appropriate conditions (e.g., overnight at 37° C.) to allow for growth to occur. Following the incubation period, the media is examined to determine bacterial growth. The lowest concentration of antibiotic that prevents growth represents the minimal inhibitory concentration (MIC). Broth dilution tests can be miniaturized and mechanized allowing for reproducibility and high throughput.

[2] = tested on: Staphylococcus aureus; assay: Broth microdilution MIC, 50 clinical isolates (28 MRSA)
Experimental: (§3) Minimal inhibitory concentration (MIC) values were determined by broth microdilution or agar dilution in accordance with guidelines from the Clinical and Laboratory Standards Institute (CLSI; (1) “Methods for Dilution Antimicrobial Susceptibility Tests for Bacteria That Grow Aerobically; Approved Standard; 11th ed.” CLSI standard M07-A11, 2018; (2) “Performance Standards for Antimicrobial Susceptibility Testing; Twenty-Eighth Informational Supplement,” CLSI document M100-S28, 2018; and (3) “Methods for Antimicrobial Susceptibility Testing of Anaerobic Bacteria; Approved Standard—Eighth Edition,” CLSI document M11-A8, 2012).
(§4) Tested aerobically by broth microdilution: • Escherichia coli, n=50 • Klebsiella spp., n=50 • Pseudomonas aeruginosa, n=50 • Streptococcus spp., n=50 • Staphylococcus aureus, n=50 • Enterococcus faecalis, n=50 • Enterobacter aerogenes, n=50 • Proteus mirabilis, n=50
(§5) Broth microdilution testing of aerobic bacteria was conducted in cation-adjusted Mueller Hinton broth (MHBII). For testing streptococci, lysed horse blood (LHB) was added to MHBII broth at a final concentration of 3%. Where LHB was used, it was added after filtering.
(§6) Broth microdilution susceptibility testing in 96-well microplates was conducted in accordance with CLSI methods (1) and (2). Automated liquid handlers were used to conduct serial dilutions and liquid transfers, including the Multidrop 384 (Labsystems, Helsinki, Finland), Biomek 2000, and the Biomek FX (Beckman Coulter, Fullerton, Calif.). All wells in columns 2 through 12 of a standard 96-well microdilution plate (Costar 3795) were filled with 150 μL of the appropriate diluent. Then, 300 μL of the test agents were added to the wells of column 1 of the plates at 100× the highest final concentration to be tested. Serial two-fold dilutions were made across the rows through column 11 using the Biomek 2000. The wells of column 12 contained no drug and served as the growth control wells. This plate served as the “mother plate” from which MIC assay plates or “daughter plates” were made.
(§7) The daughter plates were loaded with 190 μL per well of the appropriate medium using the Multidrop 384. The daughter plates were created using the Biomek FX which transferred 2 μL of drug solution from each well of a mother plate to each corresponding well of the daughter plate in a single step. A standardized inoculum of each test organism was prepared per CLSI methods (1) to equal a 0.5 McFarland standard, followed by a dilution of 1:20 for aerobes and 1:10 for anaerobes. The plates were then inoculated with 10 μL of the diluted inoculum using the Biomek 2000 from low to high drug concentration, resulting in a final concentration of approximately 5×10^5 CFU/mL per well. An un-inoculated plate was incubated in parallel for each medium for the purpose of assessing solubility of the drug in the test media.
(§8) Inoculated plates were stacked 3 or 4 high, covered with a sterile lid on the top plate, placed into boxes with CO2 planchets (streptococci) or plastic bags (all other isolates). Plates were incubated at 35° C. for 16-24 hr in ambient air for aerobes or for 42-48 hr in the anaerobic environment of the Bactron II anaerobe chamber (Sheldon Manufacturing Co.; Cornelius, Oreg.). Following incubation, the microplates were removed from the incubator and viewed from the bottom using a plate viewer. The MIC values were read and recorded as the lowest concentration of drug that inhibited visible growth of the organism as per CLSI methods (1) and (2).

[3] = tested on: Streptococcus agalactiae; assay: Broth microdilution MIC, 20 clinical isolates
Experimental: as §3, §4, §5, §6, §7, §8

[4] = tested on: Streptococcus pyogenes clinical isolates; assay: MIC distribution against clinical isolates; details: 19 S. pyogenes isolates
Description: as §1, §2

[5] = tested on: Viridans group Streptococci clinical isolates; assay: MIC distribution against clinical isolates; details: 15 Viridans group Streptococci isolates
Description: as §1, §2

[6] = tested on: Viridans group Streptococcus; assay: Broth microdilution MIC, 15 clinical isolates
Experimental: as §3, §4, §5, §6, §7, §8

[7] = tested on: Streptococcus pyogenes; assay: Broth microdilution MIC, 19 clinical isolates
Experimental: as §3, §4, §5, §6, §7, §8

[8] = tested on: Enterococcus faecalis; assay: Broth microdilution MIC, 50 clinical isolates
Experimental: as §3, §4, §5, §6, §7, §8

[9] = 20 Streptococcus agalactiae clinical isolates
[10] = 15 Viridans group Streptococci clinical isolates

C[C@@H](O)[C@H]1C(=O)N2C(C(=O)O)=C(S[C@@H]3CN[C@H](C(=O)N(C)C)C3)[C@H](C)[C@H]12 [meropenem]
Cumulative percentage of isolates inhibited at MIC ([1]; MIC 0.004 μg/mL): 29.6% | Number of test isolates at MIC ([1]; MIC 0.004 μg/mL): 15 | Cumulative percentage of isolates inhibited at MIC ([1]; MIC 0.008 μg/mL): 40.7% | Number of test isolates at MIC ([1]; MIC 0.008 μg/mL): 6 | Cumulative percentage of isolates inhibited at MIC ([1]; MIC 0.015 μg/mL): 57.4% | Number of test isolates at MIC ([1]; MIC 0.015 μg/mL): 9 | Cumulative percentage of isolates inhibited at MIC ([1]; MIC 0.03 μg/mL): 92.6% | Number of test isolates at MIC ([1]; MIC 0.03 μg/mL): 19 | Cumulative percentage of isolates inhibited at MIC ([1]; MIC 0.06 μg/mL): 94.4% | Number of test isolates at MIC ([1]; MIC 0.06 μg/mL): 1 | Cumulative percentage of isolates inhibited at MIC ([1]; MIC 0.5 μg/mL): 100.0% | Number of test isolates at MIC ([1]; MIC 0.5 μg/mL): 2 | Cumulative percentage of isolates inhibited at MIC ([1]; MIC […]): 96.3% | Number of test isolates at MIC ([1]; MIC […]): 1 | Cumulative percentage of isolates inhibited at MIC ([1]; MIC ≤0.002 μg/mL): 1.9% | Number of test isolates at MIC ([1]; MIC ≤0.002 μg/mL): 1 | Mode [2]: 0.12 µg/mL | MIC50 ([2]; Staphylococcus aureus, read-out: MIC50): 1 µg/mL (≈ 2.61 µM) | MIC90 ([2]; Staphylococcus aureus, read-out: MIC90): 8 µg/mL (≈ 20.9 µM) | MIC50 [3, 9]: 0.03 µg/mL (≈ 0.0782 µM) | MIC90 [3, 9]: 0.03 µg/mL (≈ 0.0782 µM) | MIC range [3, 9]: 0.015 to 0.06 µg/mL | % S ([3]; 20 Streptococcus agalactiae clinical isolates, MXF by FDA breakpoints): 100% | MIC50 ([3]; Streptococcus agalactiae, read-out: MIC50): 0.03 µg/mL (≈ 0.0782 µM) | MIC90 ([3]; Streptococcus agalactiae, read-out: MIC90): 0.03 µg/mL (≈ 0.0782 µM) | Mode ([3]; modal MIC, 20 Streptococcus agalactiae clinical isolates): 0.03 µg/mL | Cumulative percentage of isolates inhibited at MIC ([4]; MIC 0.004 μg/mL): 78.9% | Number of test isolates at MIC ([4]; MIC 0.004 μg/mL): 14 | Cumulative percentage of isolates inhibited at MIC ([4]; MIC 0.008 μg/mL): 94.7% | Number of test isolates at MIC ([4]; MIC 0.008 μg/mL): 3 | Cumulative percentage of isolates inhibited at MIC ([4]; MIC 0.03 μg/mL): 100.0% | Number of test isolates at MIC ([4]; MIC 0.03 μg/mL): 1 | Cumulative percentage of isolates inhibited at MIC ([4]; MIC ≤0.002 μg/mL): 5.3% | Number of test isolates at MIC ([4]; MIC ≤0.002 μg/mL): 1 | Cumulative percentage of isolates inhibited at MIC ([5]; MIC 0.004 μg/mL): 6.7% | Number of test isolates at MIC ([5]; MIC 0.004 μg/mL): 1 | Cumulative percentage of isolates inhibited at MIC ([5]; MIC 0.008 μg/mL): 26.7% | Number of test isolates at MIC ([5]; MIC 0.008 μg/mL): 3 | Cumulative percentage of isolates inhibited at MIC ([5]; MIC 0.015 μg/mL): 60.0% | Number of test isolates at MIC ([5]; MIC 0.015 μg/mL): 5 | Cumulative percentage of isolates inhibited at MIC ([5]; MIC 0.03 μg/mL): 80.0% | Number of test isolates at MIC ([5]; MIC 0.03 μg/mL): 3 | Cumulative percentage of isolates inhibited at MIC ([5]; MIC 0.5 μg/mL): 100.0% | Number of test isolates at MIC ([5]; MIC 0.5 μg/mL): 2 | Cumulative percentage of isolates inhibited at MIC ([5]; MIC […]): 86.7% | Number of test isolates at MIC ([5]; MIC […]): 1 | MIC50 [6, 10]: 0.015 µg/mL (≈ 0.0391 µM) | MIC90 [6, 10]: 0.5 µg/mL (≈ 1.3 µM) | MIC range [6, 10]: 0.004 to 0.5 µg/mL | % S ([6]; 15 Viridans group Streptococci clinical isolates, MXF by FDA breakpoints): 100% | MIC50 ([6]; Streptococcus, read-out: MIC50): 0.015 µg/mL (≈ 0.0391 µM) | MIC90 ([6]; Streptococcus, read-out: MIC90): 0.5 µg/mL (≈ 1.3 µM) | Mode ([6]; modal MIC, 15 Viridans group Streptococci clinical isolates): 0.015 µg/mL | % S [7]: 100% | MIC range [7]: ≤0.002-0.03^ μg/mL | Mode [7]: 0.004 µg/mL | MIC50 ([7]; Streptococcus pyogenes, read-out: MIC50): 0.004 µg/mL (≈ 0.0104 µM) | MIC90 ([7]; Streptococcus pyogenes, read-out: MIC90): 0.008 µg/mL (≈ 0.0209 µM) | Mode [8]: 4 µg/mL | MIC50 ([8]; Enterococcus faecalis, read-out: MIC50): 4 µg/mL (≈ 10.4 µM) | MIC90 ([8]; Enterococcus faecalis, read-out: MIC90): 8 µg/mL (≈ 20.9 µM)
